From US8815304B2, “Compositions and methods for promoting appetite suppression using alkali metals” (Ashberry International Limited, priority 2010, dated 2014)

Assays:
Format in all cases: in vivo, human
[1] = Example 1: alkali metal composition in water taken daily by a 100 kg person for two months; details: 300 mg in water, each over another two-month period
Procedure: A 100 kg person was administered a pharmaceutical composition of the invention. Cesium chloride ([…]), rubidium chloride ([…]) and lithium aspartate (40 milligrams) together were dissolved in one glass of water and ingested in the morning daily over a two month period.

[2] = Weight loss trials in one subject (first to fifth and further trials, Examples 4-9); details: for weight lost during the trial: two months (61 days)
Text: The therapeutic efficacy of a composition in accordance with the present invention has been tested herein.
These trials were not undertaken to lose weight as quickly as possible but rather they were undertaken with the recommendation by doctors to the subject(s) not to lose weight too quickly and to eat potassium rich foods, especially at night, instead of junk food.
As such, the aim of these trials was to have the subjects lose weight and stop the cravings for junk food with the aid of the compositions of this invention and use the enhanced energy and stimulation supplied from the compositions to change eating habits away from junk food thereby facilitating weight loss.
During a first trial, a subject was administered 300 mg of cesium chloride once per day in a glass of water every morning. The first trial lasted two months (61 days) and the subject (100 kg) lost ten kilograms during this time period, as follows:
In a second trial, the subject was administered 120 mg of lithium carbonate once per day with a glass of water every morning for two months (59 days). The subject reported after two weeks the stress of trying to diminish junk food intake was reduced.
In a third trial, the subject was administered 40 mg of lithium carbonate with a glass of water every morning for two months. The subject reported that the most difficult aspect was to stop the craving for junk food in the evening and the late afternoon.
In a fourth trial, the subject was administered 300 mg of rubidium chloride once per once day in a glass of water in the morning. This trial lasted two months (61 days), and the subject lost ten kilograms during this time period. The most difficult aspect reported was the urge to eat junk food for dinner and the cravings in the evening, which contributed to poor weight loss at the beginning of the trial (an option for people who cannot stop eating junk food at night would be to split the dosage and take half in the morning and half late in the afternoon or increase the dosage to 200 mg in the morning and 200 mg in the late afternoon).
In a fifth trial, the subject was administered 150 mg of rubidium chloride, 150 mg cesium chloride, and 40 mg of lithium carbonate once per day together in a glass of water in the morning. This trial lasted two months (61 days) and the subject lost ten kilograms during this time period. The most difficult aspect reported by the subject was the craving for junk food for dinner or late in the afternoon. This contributed to the little weight loss early in the study.
In further trials, the subject was administered lithium salts—lithium orotate, lithium aspartate, and lithium citrate (40 mg) with a glass of water in the morning. The subject reported similar cravings as noted above.

[3] = Blind trial with two subjects (rubidium chloride vs powdered sugar placebo), Example 10; details: rubidium chloride 300 mg once per day
Procedure: In a blind trial with two subjects, a subject (66 kg) was administered 300 mg of rubidium chloride once per day in a glass of water in the morning for two months (61 days). The second subject was a person (98 kg) who was administered a placebo of powdered sugar once per day in a glass of water in the morning during the same two months.
The most difficult aspect reported by the subject was to stop eating junk food for dinner and to stop the craving for junk food in the evening, which is believed to be the reason for little weight loss at the beginning of the trial (a proposed solution for people who cannot stop eating at night would be to split the dosage of the 300 mg of rubidium chloride and take half in the morning and half late in the afternoon).
The aim of this trial was to have the subject lose weight and stop the craving for junk food with the aid of the composition. The enhanced energy and stimulation supplied from the composition that was tested to determine if it prompted a change in eating habits away from junk food, thereby facilitated weight loss. Both subjects stated there was a higher craving for junk food for them in the afternoon and evening.
The trial lasted two months and the subject lost no weight and found the powdered sugar caused no stimulation, while the subject lost 6.5 kilograms during this time period, as follows: […]

[4] = further trials, lithium salt 40 mg in the morning
[5] = further trials, lithium salt 40 mg in the morning, after two weeks
[6] = further trials, lithium salt 40 mg with a glass of water in the morning

[Cl-].[Cs+] [cesium chloride]
effect of the individual alkali metals ingested separately, compared with the combination [1]: worked as well and with the same sensation
Weight ([2]; first trial, cesium chloride 300 mg once per day, day 1-9): 100 kg
Weight ([2]; first trial, cesium chloride 300 mg once per day, day 10-13): 99 kg
Weight ([2]; first trial, cesium chloride 300 mg once per day, day 14-15): 98 kg
Weight ([2]; first trial, cesium chloride 300 mg once per day, day 16-23): 97 kg
Weight ([2]; first trial, cesium chloride 300 mg once per day, day 24-34): 96 kg
Weight ([2]; first trial, cesium chloride 300 mg once per day, day 35-41): 95 kg
Weight ([2]; first trial, cesium chloride 300 mg once per day, day 42-47): 94 kg
Weight ([2]; first trial, cesium chloride 300 mg once per day, day 48-52): 93 kg
Weight ([2]; first trial, cesium chloride 300 mg once per day, day 53-55): 92 kg
Weight ([2]; first trial, cesium chloride 300 mg once per day, day 56-58): 91 kg
Weight ([2]; first trial, cesium chloride 300 mg once per day, day 59-61): 90 kg
weight lost during the trial ([2]; first trial, cesium chloride 300 mg once per day, subject 100 kg): ten

O=C([O-])c1cc(=O)[nH]c(=O)[nH]1.[Li+] [lithium orotate]
feeling of stimulation (subject report) [2, 4]: not the feeling of stimulation as in the first and fourth trials
stress of trying to diminish junk food intake (subject report) [2, 5]: decreased
weight loss (in words) [2, 6]: Weight loss was recorded

O=C([O-])[O-].[Li+].[Li+] [lithium carbonate]
stress of trying to diminish junk food intake (subject report) ([2]; second trial, lithium carbonate 120 mg once per day, after two weeks): reduced
Weight ([2]; second trial, lithium carbonate 120 mg once per day, day 1-14): 100 kg
Weight ([2]; second trial, lithium carbonate 120 mg once per day, day 15-19): 99 kg
Weight ([2]; second trial, lithium carbonate 120 mg once per day, day 20-27): 98 kg
Weight ([2]; second trial, lithium carbonate 120 mg once per day, day 28-35): 97 kg
Weight ([2]; second trial, lithium carbonate 120 mg once per day, day 36-39): 96 kg
Weight ([2]; second trial, lithium carbonate 120 mg once per day, day 40-46): 95 kg
Weight ([2]; second trial, lithium carbonate 120 mg once per day, day 47-52): 94 kg
Weight ([2]; second trial, lithium carbonate 120 mg once per day, day 53-57): 93 kg
Weight ([2]; second trial, lithium carbonate 120 mg once per day, day 58-59): 92 kg
weight loss (in words) ([2]; second trial, lithium carbonate 120 mg once per day, two months (59 days)): Weight loss resulted
feeling of stimulation (subject report) ([2]; third trial, lithium carbonate 40 mg every morning): not the feeling of stimulation as in the first trial
stress of trying to reduce junk food intake (subject report) ([2]; third trial, lithium carbonate 40 mg every morning, after two weeks): reduced
Weight ([2]; third trial, lithium carbonate 40 mg every morning, day 1-15): 100 kg
Weight ([2]; third trial, lithium carbonate 40 mg every morning, day 16-25): 99 kg
Weight ([2]; third trial, lithium carbonate 40 mg every morning, day 26-34): 98 kg
Weight ([2]; third trial, lithium carbonate 40 mg every morning, day 35-41): 97 kg
Weight ([2]; third trial, lithium carbonate 40 mg every morning, day 42-48): 96 kg
Weight ([2]; third trial, lithium carbonate 40 mg every morning, day 49-53): 95 kg
Weight ([2]; third trial, lithium carbonate 40 mg every morning, day 54-57): 94 kg
Weight ([2]; third trial, lithium carbonate 40 mg every morning, day 58-60): 93 kg
Weight ([2]; third trial, lithium carbonate 40 mg every morning, day 61): 92 kg
weight loss (in words) ([2]; third trial, lithium carbonate 40 mg every morning, two months): Weight loss also resulted

O=C([O-])CC(O)(CC(=O)[O-])C(=O)[O-].[Li+].[Li+].[Li+] [lithium citrate]
feeling of stimulation (subject report) [2, 4]: not the feeling of stimulation as in the first and fourth trials
stress of trying to diminish junk food intake (subject report) [2, 5]: decreased
weight loss (in words) [2, 6]: Weight loss was recorded

[Cl-].[Rb+] [rubidium chloride]
effect of the individual alkali metals ingested separately, compared with the combination [1]: worked as well and with the same sensation
Weight ([2]; fourth trial, rubidium chloride 300 mg once per day, day 1-10): 102 kg
Weight ([2]; fourth trial, rubidium chloride 300 mg once per day, day 11-15): 101 kg
Weight ([2]; fourth trial, rubidium chloride 300 mg once per day, day 16-23): 100 kg
Weight ([2]; fourth trial, rubidium chloride 300 mg once per day, day 24-29): 99 kg
Weight ([2]; fourth trial, rubidium chloride 300 mg once per day, day 30-35): 98 kg
Weight ([2]; fourth trial, rubidium chloride 300 mg once per day, day 36-40): 97 kg
Weight ([2]; fourth trial, rubidium chloride 300 mg once per day, day 41-45): 96 kg
Weight ([2]; fourth trial, rubidium chloride 300 mg once per day, day 46-50): 95 kg
Weight ([2]; fourth trial, rubidium chloride 300 mg once per day, day 51-54): 94 kg
Weight ([2]; fourth trial, rubidium chloride 300 mg once per day, day 55-59): 93 kg
Weight ([2]; fourth trial, rubidium chloride 300 mg once per day, day 60-61): 92 kg
weight lost during the trial ([2]; fourth trial, rubidium chloride 300 mg once per day): ten
weight lost during the trial ([3]; subject (66 kg), two months (61 days)): 6.5 kilograms
craving for junk food (subject report) ([3]; subject): less craving for junk food than normal even after the first day
energy and activity during the day (subject report) ([3]; subject): much more energy than before
stimulation from the medication (subject report) ([3]; subject): very, very strong
Weight ([3]; subject, day 1-5): 66 kg
Weight ([3]; subject, day 6-9): 65.5 kg
Weight ([3]; subject, day 10-12): 65 kg
Weight ([3]; subject, day 13-18): 64 kg
Weight ([3]; subject, day 19-28): 63 kg
Weight ([3]; subject, day 29-30): 64 kg
Weight ([3]; subject, day 31-32): 63.5 kg
Weight ([3]; subject, day 33-34): 63 kg
Weight ([3]; subject, day 35-43): 62 kg
Weight ([3]; subject, day 44-51): 61 kg
Weight ([3]; subject, day 52-55): 60.5 kg
Weight ([3]; subject, day 56-59): 60 kg
Weight ([3]; subject, day 60-61): 59.5 kg

N[C@@H](CC(=O)[O-])C(=O)[O-].[Li+].[Li+] [lithium aspartate]
feeling of stimulation (subject report) [2, 4]: not the feeling of stimulation as in the first and fourth trials
stress of trying to diminish junk food intake (subject report) [2, 5]: decreased
weight loss (in words) [2, 6]: Weight loss was recorded
